These results are taken from patent US20210300924A1, “5-[6-[[3-(4,5,6,7-TETRAHYDROPYRAZOLO[4,3-C]PYRIDIN-1-YL)AZETIDIN-1-YL]METHYL]MORPHOLIN-4-YL]QUINOLINE-8-CARBONITRILE DERIVATIVES AND SIMILAR COMPOUNDS AS TLR7-9 ANTAGONISTS FOR TREATING SYSTEMIC LUPUS ERYTHEMATOSUS” (Hoffmann-La Roche Inc., priority 2018, published 2021).

The target of one series is T1, CYP2D6 (Homo sapiens, UniProt P10635).
T1 construct: tissue BD-Gentest 452117; host or cells: human liver microsomes
As to the kind of experiment: CYP inhibition assay in human liver microsome. It counts as in vitro ADME. As to conditions: human liver microsomes, probe dextromethorphan, dextromethorphan substrate, percentage inhibition <0: not or weak inhibitor, read-out: CYP 2D6 inhibition % @ 10 μM. Here is the method: This is a high throughput screening assay used for assessment of reversible inhibition of CYP2D6 activity of test compounds in human liver microsome (HLM) in early discovery stage.
10 mM DMSO stock solutions of test compounds were diluted in DMSO to generate 2 mM intermediate stock solution. 250 nL of intermediate stock solution were transferred in duplicate into 3 separate 384 well microtitre plates (assay-ready plates). A mixture of HLM and each substrate was made up. 45 μL of HLM substrate mix was then transferred to each well of an assay ready plate and mixed. The negative (solvent) and positive control (standard inhibitor for CYP 2D6) were included in each assay ready plate. The assay ready plate was warmed to 37° C. in an incubator over 10 minutes. 5 μL pre-warmed NADPH regenerating system was added to each incubation well to start the reaction. Final incubation volume was 50 μL. The assay plate then was placed back in the 37° C. incubator. After 10 minutes incubation, incubates were quenched by addition of 50 μL 100% acetonitrile containing internal standards (20 ng/mL D3-Dextrorphan). The supernatants were collected for RapidFire/MS/MS analysis.
RapidFire online solid phase extraction/sample injection system (Agilent) coupled with API4000 triple quadrupole mass spectrometer (AB Sciex) were used for sample analysis. The mobile phase composed of acetonitrile and water supplemented with 0.1% formic acid. A C4 solid phase extraction cartridge is used for sample separation. MS detection is achieved in positive ion MRM mode.
Peak areas for substrate, metabolite and internal standard are determined using the RapidFire integrator software (version 3.6.12009.12296). Peak area ratios (PAR) of metabolite and internal standard (stable-labelled metabolite) are then calculated. The measurement window for each experiment is then defined:
PAR (0% activity)=average PAR for all incubations containing concentrated inhibitor;
Par (100% activity)=average PAR for all incubations containing no inhibitor (DMSO controls);
% Activity (test inhibitor)=
[PAR(test inhibitor)−PAR(0% activity)]/[PAR(100% activity)−PAR(0% activity)]; % Inhibition (test inhibitor)=100−% Activity (test inhibitor).
In general terms: Liver microsomes are a subcellular fraction often used to study metabolism.

The next series deals with T2, TLR9 (Homo sapiens, UniProt Q9NR96).
T2 sequence (Q9NR96 26-1032): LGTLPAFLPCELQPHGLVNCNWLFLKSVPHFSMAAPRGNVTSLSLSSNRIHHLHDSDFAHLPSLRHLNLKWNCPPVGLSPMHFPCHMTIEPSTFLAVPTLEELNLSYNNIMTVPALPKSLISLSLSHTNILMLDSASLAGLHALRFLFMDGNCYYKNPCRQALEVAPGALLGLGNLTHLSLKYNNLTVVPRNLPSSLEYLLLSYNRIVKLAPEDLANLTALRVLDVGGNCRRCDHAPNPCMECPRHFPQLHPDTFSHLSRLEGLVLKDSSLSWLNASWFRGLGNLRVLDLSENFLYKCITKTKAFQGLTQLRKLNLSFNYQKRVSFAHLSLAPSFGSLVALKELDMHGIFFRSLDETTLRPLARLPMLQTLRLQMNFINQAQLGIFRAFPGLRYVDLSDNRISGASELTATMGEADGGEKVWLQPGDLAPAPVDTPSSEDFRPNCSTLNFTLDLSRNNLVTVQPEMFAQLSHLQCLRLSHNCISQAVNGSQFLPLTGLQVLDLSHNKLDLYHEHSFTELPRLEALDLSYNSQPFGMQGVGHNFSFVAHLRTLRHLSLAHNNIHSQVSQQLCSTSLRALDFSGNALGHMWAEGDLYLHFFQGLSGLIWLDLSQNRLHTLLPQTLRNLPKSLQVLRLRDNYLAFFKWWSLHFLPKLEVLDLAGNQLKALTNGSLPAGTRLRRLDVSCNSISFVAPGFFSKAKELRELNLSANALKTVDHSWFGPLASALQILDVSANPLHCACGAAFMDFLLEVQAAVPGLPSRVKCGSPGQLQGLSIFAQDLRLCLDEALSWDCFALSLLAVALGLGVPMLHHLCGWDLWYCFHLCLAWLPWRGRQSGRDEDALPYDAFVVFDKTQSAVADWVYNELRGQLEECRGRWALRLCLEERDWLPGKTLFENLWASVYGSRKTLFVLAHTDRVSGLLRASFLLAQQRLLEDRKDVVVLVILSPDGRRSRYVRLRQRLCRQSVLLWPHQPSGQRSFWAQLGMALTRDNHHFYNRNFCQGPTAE
The series can be described thus: HEK293-Blue-hTLR-9 cells assay. Format: cell-based. Also noted: host or cells: HEK293 (HEK-Blue hTLR9). Conditions: HEK293-Blue-hTLR9 cells, ODN2006 stimulation, 20 hrs, SEAP reporter; read-out: HEK/hTLR9 IC50. The source says: HEK293-Blue-hTLR-9 Cells Assay:
A stable HEK293-Blue-hTLR-9 cell line was purchased from InvivoGen (Cat. #: hkb-htlr9, San Diego, Calif., USA). These cells were originally designed for studying the stimulation of human TLR9 by monitoring the activation of NF-κB. A SEAP (secreted embryonic alkaline phosphatase) reporter gene was placed under the control of the IFN-β minimal promoter fused to five NF-κB and AP-1-binding sites. The SEAP was induced by activating NF-κB and AP-1 via stimulating HEK-Blue hTLR9 cells with TLR9 ligands. Therefore the reporter expression was declined by TLR9 antagonist under the stimulation of a ligand, such as ODN2006 (Cat. #: tlr1-2006-1, Invivogen, San Diego, Calif., USA), for incubation of 20 hrs. The cell culture supernatant SEAP reporter activity was determined using QUANTI-Blue™ kit (Cat. #: rep-01, Invivogen, San Diego, Calif., USA) at a wavelength of 640 nm, a detection medium that turns purple or blue in the presence of alkaline phosphatase.
HEK293-Blue-hTLR9 cells were incubated at a density of 250,000-450,000 cells/mL in a volume of 170 μL in a 96-well plate in Dulbecco's Modified Eagle's medium (DMEM) containing 4.5 g/L glucose, 50 U/mL penicillin, […], 2 mM L-glutamine, 10% (v/v) heat-inactivated fetal bovine serum with addition of 20 μL test compound in a serial dilution in the presence of final DMSO at 1% and 10 μL of 20 uM ODN2006 in above DMEM, perform incubation under 37° C. in a CO2 incubator for 20 hrs. Then 20 μL of the supernatant from each well was incubated with 180 μL Quanti-blue substrate solution at 37° C. for 2 h and the absorbance was read at 620-655 nm using a spectrophotometer. The signaling pathway that TLR9 activation leads to downstream NF-κB activation has been widely accepted, and therefore similar reporter assay was modified for evaluating TLR9 antagonist.

T1 sequence (P10635 whole entry): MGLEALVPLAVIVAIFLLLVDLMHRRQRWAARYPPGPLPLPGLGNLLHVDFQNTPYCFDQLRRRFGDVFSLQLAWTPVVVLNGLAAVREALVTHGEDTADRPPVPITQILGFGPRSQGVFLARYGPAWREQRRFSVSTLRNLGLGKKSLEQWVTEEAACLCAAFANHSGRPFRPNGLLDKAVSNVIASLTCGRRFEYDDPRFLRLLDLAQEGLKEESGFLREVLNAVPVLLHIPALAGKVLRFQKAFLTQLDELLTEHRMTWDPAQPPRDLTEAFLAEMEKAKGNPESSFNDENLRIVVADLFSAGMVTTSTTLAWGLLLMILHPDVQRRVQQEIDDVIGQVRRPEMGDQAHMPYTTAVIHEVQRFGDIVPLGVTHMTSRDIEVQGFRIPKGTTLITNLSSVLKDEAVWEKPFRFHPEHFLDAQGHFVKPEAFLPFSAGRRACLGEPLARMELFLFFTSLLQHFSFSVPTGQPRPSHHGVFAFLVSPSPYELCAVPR

In the case of `C[C@@H]1CN(c2ccc(C#N)c3ncccc23)C[C@H](CN2CC(n3cc4c(n3)CCNC4)C2)O1` [Example 2, 5-[(2R,6S)-2-methyl-6-[[3-(4,5,6,7-tetrahydropyrazolo[4,3-c]pyridin-2-yl)azetidin-1-yl]methyl]morpholin-4-yl]quinoline-8-carbonitrile], the inhibition (in general, the relative decrease from the control value, in per cent) at 10 min, 10 µM at CYP2D6 was determined as 1%. For the same molecule, the IC50 at TLR9 is 66 nM.

On to `CCN1CCc2cn(C3CN(C[C@H]4CN(c5ccc(C#N)c6ncccc56)C[C@@H](C)O4)C3)nc2C1` [Example 7, 5-[(2S,6R)-2-[[3-(6-ethyl-5,7-dihydro-4H-pyrazolo[3,4-c]pyridin-2-yl)azetidin-1-yl]methyl]-6-methyl-morpholin-4-yl]quinoline-8-carbonitrile], for which the inhibition at 10 min, 10 µM at CYP2D6 was -19.5%. Also, the IC50 at TLR9 came out at 116 nM.

Turning to `C[C@@H]1Cc2c(cnn2C2CN(C[C@H]3CN(c4ccc(C#N)c5ncccc45)C[C@@H](C)O3)C2)CN1` [Example 16, 5-[(2R,6S)-2-methyl-6-[[3-[(6R)-6-methyl-4,5,6,7-tetrahydropyrazolo[4,3-c]pyridin-1-yl]azetidin-1-yl]methyl]morpholin-4-yl]quinoline-8-carbonitrile], the inhibition at 10 min, 10 µM on CYP2D6 worked out at 8%. Also, the IC50 on TLR9 was found to be 78 nM.

As to `Cc1c2c(nn1C1CN(C[C@H]3CN(c4ccc(C#N)c5ncccc45)C[C@@H](C)O3)C1)CCN(C)C2` [Example 15, 5-[(2S,6R)-2-[[3-(3,5-dimethyl-6,7-dihydro-4H-pyrazolo[4,3-c]pyridin-2-yl)azetidin-1-yl]methyl]-6-methyl-morpholin-4-yl]quinoline-8-carbonitrile], the inhibition at 10 min, 10 µM on CYP2D6 was -10.5%. The IC50 at TLR9 amounted to 128 nM.

Take `C[C@@H]1CN(c2ccc(C#N)c3ncccc23)C[C@H](CN2CC(n3ncc4c3CNCC4)C2)O1` [Example 3, 5-[(2R,6S)-2-methyl-6-[[3-(4,5,6,7-tetrahydropyrazolo[3,4-c]pyridin-1-yl)azetidin-1-yl]methyl]morpholin-4-yl]quinoline-8-carbonitrile]: on CYP2D6, the inhibition at 10 min, 10 µM turned out to be 10.5%. Further, the IC50 on TLR9 is 51 nM.

For `Cc1nn(C2CN(C[C@H]3CN(c4ccc(C#N)c5ncccc45)C[C@@H](C)O3)C2)c2c1CCNC2` [Example 42, 5-[(2R,6S)-2-methyl-6-[[3-(3-methyl-4,5,6,7-tetrahydropyrazolo[3,4-c]pyridin-1-yl)azetidin-1-yl]methyl]morpholin-4-yl]quinoline-8-carbonitrile], the inhibition at 10 min, 10 µM on CYP2D6 was found to be 17.5%. Further, the IC50 on TLR9 amounted to 134 nM.

For the molecule `C[C@@H]1CN(c2ccc(C#N)c3ncccc23)C[C@H](CN2CC(n3ncc4c3C[C@H](C)NC4)C2)O1` [Example 18, 5-[(2R,6S)-2-methyl-6-[[3-[(6S)-6-methyl-4,5,6,7-tetrahydropyrazolo[4,3-c]pyridin-1-yl]azetidin-1-yl]methyl]morpholin-4-yl]quinoline-8-carbonitrile], on CYP2D6, the inhibition at 10 min, 10 µM was -2.5%. Moreover, the IC50 at TLR9 was found to be 147 nM.

For the molecule `C[C@@H]1Cc2cn(C3CN(C[C@H]4CN(c5ccc(C#N)c6ncccc56)C[C@@H](C)O4)C3)nc2CN1` (single isomer, unassigned) [Example 30], at CYP2D6, the inhibition at 10 min, 10 µM amounted to 3.5%. The IC50 at TLR9 was 57 nM.

As for `CC(C)N1CCc2cnn(C3CN(C[C@H]4CN(c5ccc(C#N)c6ncccc56)C[C@@H](C)O4)C3)c2C1` [Example 8, 5-[(2S,6R)-2-[[3-(6-isopropyl-5,7-dihydro-4H-pyrazolo[3,4-c]pyridin-1-yl)azetidin-1-yl]methyl]-6-methyl-morpholin-4-yl]quinoline-8-carbonitrile], the inhibition at 10 min, 10 µM on CYP2D6 was 11%. In addition, at TLR9, the IC50 was 125 nM.

Consider `C[C@@H]1CN(c2ccc(C#N)c3ncccc23)C[C@H](CN2CC(n3cc4c(n3)CNC4)C2)O1` [Example 11, 5-[(2S,6R)-2-[[3-(5,6-dihydro-4H-pyrrolo[3,4-c]pyrazol-2-yl)azetidin-1-yl]methyl]-6-methyl-morpholin-4-yl]quinoline-8-carbonitrile], for which the inhibition at 10 min, 10 µM at CYP2D6 is -6%. Further, the IC50 at TLR9 amounted to 49 nM.

In the case of `C[C@@H]1CN(c2ccc(C#N)c3ncccc23)C[C@H](CN2CCC(n3cc4c(n3)CCNC4)CC2)O1` [Example 36, 5-[(2R,6S)-2-methyl-6-[[4-(4,5,6,7-tetrahydropyrazolo[4,3-c]pyridin-2-yl)-1-piperidyl]methyl]morpholin-4-yl]quinoline-8-carbonitrile], the inhibition at 10 min, 10 µM at CYP2D6 worked out at 20.3%. The IC50 on TLR9 was determined as 55 nM.
